Experimental data as given in patent US20220332700A1, “NOVEL APOPTOSIS SIGNAL-REGULATING KINASE 1 INHIBITORS” (MANKIND PHARMA LTD, priority 2019, published 2022).

How the values were obtained:
Human ASK1 = molecular target: T1, Human ASK1 (Homo sapiens, UniProt Q99683); experiment: ASK1 Cell Based Assay (phospho p38 read out in hASK1 transfected HEK293T-AP1 cells); details: HEK293T-AP1 cells, 1 mM hydrogen peroxide, phospho p38; read-out: Cell Based Assay IC50
T1 construct: expressed in transfected cells; host or cells: HEK293T-AP1
T1 sequence (Q99683 1-1374): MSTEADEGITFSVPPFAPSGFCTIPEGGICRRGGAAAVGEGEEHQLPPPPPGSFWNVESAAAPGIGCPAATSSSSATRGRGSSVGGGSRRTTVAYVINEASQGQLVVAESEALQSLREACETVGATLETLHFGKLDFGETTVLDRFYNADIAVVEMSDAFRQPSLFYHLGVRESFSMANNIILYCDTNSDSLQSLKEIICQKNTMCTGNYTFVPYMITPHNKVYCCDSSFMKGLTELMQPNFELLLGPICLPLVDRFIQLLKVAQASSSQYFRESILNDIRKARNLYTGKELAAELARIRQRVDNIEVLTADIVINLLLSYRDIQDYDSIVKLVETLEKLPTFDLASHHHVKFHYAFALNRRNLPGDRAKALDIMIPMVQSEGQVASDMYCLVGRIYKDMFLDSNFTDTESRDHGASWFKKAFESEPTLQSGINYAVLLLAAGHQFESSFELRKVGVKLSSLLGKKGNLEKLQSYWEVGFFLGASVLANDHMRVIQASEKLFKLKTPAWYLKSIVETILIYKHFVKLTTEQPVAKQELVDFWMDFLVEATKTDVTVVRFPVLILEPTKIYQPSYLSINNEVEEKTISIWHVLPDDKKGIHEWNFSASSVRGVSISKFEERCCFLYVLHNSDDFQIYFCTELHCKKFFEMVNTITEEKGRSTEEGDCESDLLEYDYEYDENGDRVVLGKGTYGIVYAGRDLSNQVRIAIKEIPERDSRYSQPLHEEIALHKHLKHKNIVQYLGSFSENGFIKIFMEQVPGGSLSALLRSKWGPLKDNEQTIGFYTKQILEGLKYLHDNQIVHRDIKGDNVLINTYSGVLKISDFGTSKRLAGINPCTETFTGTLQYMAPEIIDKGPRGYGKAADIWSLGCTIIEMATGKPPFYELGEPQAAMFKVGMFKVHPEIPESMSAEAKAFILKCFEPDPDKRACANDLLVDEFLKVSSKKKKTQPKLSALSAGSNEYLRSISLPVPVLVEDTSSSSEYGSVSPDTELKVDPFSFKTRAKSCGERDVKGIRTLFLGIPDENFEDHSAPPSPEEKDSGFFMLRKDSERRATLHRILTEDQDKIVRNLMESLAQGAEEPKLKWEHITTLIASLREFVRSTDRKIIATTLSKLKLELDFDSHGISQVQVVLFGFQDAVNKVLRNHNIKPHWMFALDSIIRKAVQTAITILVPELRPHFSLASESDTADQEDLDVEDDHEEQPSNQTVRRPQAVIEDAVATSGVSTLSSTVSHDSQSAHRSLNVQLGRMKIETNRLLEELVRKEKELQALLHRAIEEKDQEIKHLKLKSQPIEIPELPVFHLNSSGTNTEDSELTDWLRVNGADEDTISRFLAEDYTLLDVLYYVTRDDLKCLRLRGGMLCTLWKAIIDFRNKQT
Outline: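 HEK293T-AP1 cells transfected with hASK1, after 24 h treated with compounds for 24 h (0.2% DMSO), then stimulated with 1 mM H2O2 for 1 h with compounds present.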

recombinant ASK1 = molecular target: T2, recombinant ASK1 (Homo sapiens, UniProt Q99683); experiment: ASK1 Biochemical Assay (HTRF KinEASE-STK S3); details: ATP 100 μM; read-out: Biochemical Assay IC50
T2 construct: purchased Carna Biosciences
Outline: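 Recombinant ASK1 (5 ng) preincubated with compound 1 h at 23 °C in MOPS pH 7 buffer with Mg-acetate, DTT, NP40, glycerol, BSA and 1% DMSO. Inhibition calculated against vehicle after substrate-blank subtraction.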

Row | SMILES | IC50 (Human ASK1) | IC50 (recombinant ASK1)
1 | CC(C)n1cnnc1-c1cccc(N2CCN(c3ccc(NC4CCOC4)cc3)C2=O)n1 (stereo not shown) [Example 1133, 1-(6-(4-isopropyl-4H-1,2,4-triazol-3-yl)pyridin-2-yl)-3-(4-(tetrahydrofuran-3-ylamino)phenyl)imidazolidin-2-one] | > 1000 nM | < 100 nM
2 | CC(C)C(C#N)C1CN(c2ccc(N3CCN(c4cccc(-c5nncn5C(C)C)n4)C3=O)cc2)C1 (stereo not shown) [Example 1134, 2-(1-(4-(3-(6-(4-isopropyl-4H-1,2,4-triazol-3-yl)pyridin-2-yl)-2-oxoimidazolidin-1-yl)phenyl)azetidin-3-yl)-3-methylbutanenitrile] | > 1000 nM | < 100 nM
3 | CC(C)n1cnnc1-c1cccc(N2CCN(c3ccc(N4CCN(C)C(=O)C4)cc3)C2=O)n1 [Example 1135, 4-(4-(3-(6-(4-isopropyl-4H-1,2,4-triazol-3-yl)pyridin-2-yl)-2-oxoimidazolidin-1-yl)phenyl)-1-methylpiperazin-2-one] | > 1000 nM | < 100 nM
4 | CNC(=O)N1CCN(c2ccc(N3CCN(c4cccc(-c5nncn5C(C)C)n4)C3=O)cc2)CC1 [Example 1136, 4-(4-(3-(6-(4-isopropyl-4H-1,2,4-triazol-3-yl)pyridin-2-yl)-2-oxoimidazolidin-1-yl)phenyl)-N-methylpiperazine-1-carboxamide] | > 100 nM | < 100 nM
5 | CC(C)n1cnnc1-c1cccc(N2CCN(c3ccc(N4CCN(C(=O)CC#N)CC4)cc3)C2=O)n1 [Example 1137, 3-(4-(4-(3-(6-(4-isopropyl-4H-1,2,4-triazol-3-yl)pyridin-2-yl)-2-oxoimidazolidin-1-yl)phenyl)piperazin-1-yl)-3-oxopropanenitrile] | > 100 nM | < 100 nM
6 | CC(C)n1cnnc1-c1cccc(N2CCN(c3ccc(N4CCC(F)CC4)cc3)C2=O)n1 [Example 1138, 1-(4-(4-fluoropiperidin-1-yl)phenyl)-3-(6-(4-isopropyl-4H-1,2,4-triazol-3-yl)pyridin-2-yl)imidazolidin-2-one] | > 100 nM | < 100 nM
7 | CNC1(C2CCN(c3ccc(N4CCN(c5cccc(-c6nncn6C(C)C)n5)C4=O)cc3)CC2)COC1 [Example 1139, 1-(6-(4-isopropyl-4H-1,2,4-triazol-3-yl)pyridin-2-yl)-3-(4-(4-(3-(methylamino)oxetan-3-yl)piperidin-1-yl)phenyl)imidazolidin-2-one] | > 100 nM | < 100 nM
8 | CNC(=O)C1CC2CCC(C1)N2c1ccc(N2CCN(c3cccc(-c4nncn4C(C)C)n3)C2=O)cc1 (stereo not shown) [Example 1140, 8-(4-(3-(6-(4-isopropyl-4H-1,2,4-triazol-3-yl)pyridin-2-yl)-2-oxoimidazolidin-1-yl)phenyl)-N-methyl-8-aza-bicyclo[3.2.1]octane-3-carboxamide] | < 100 nM | < 50 nM
